Reference: US20130331610A1, “Halogenated Pyrazolo[1,5-A]Pyrimidines, Processes, Uses, Compositions and Intermediates” (priority 2005, published 2013)
Where two headings read alike, the source gives them in different places.

Assays:
[1] = biological target: α1 subunit of GABAA receptor (Rattus norvegicus, UniProt P18508+P62813); test: biochemical; settings: for inhibition at 10 µM: read-out: % Inhib 10^−5 M; for inhibition at 0.1 µM: read-out: % Inhib 10^−7 M
From the text: % specific binding=(X−N/T−N)×100

motor activity of mice = test: In vivo predictive sedation-hypnosis test in mice (inhibition of traveled distance); parameters: species or system mouse; settings: for inhibition in vivo at 0.98 µmol/kg / inhibition in vivo at 98 µmol/kg / inhibition in vivo at 3 µmol/kg: Mus musculus, read-out: % Inhib motor activity; for inhibition in vivo at 0.98 µmol/kg: 0.98 μmol/kg; for inhibition in vivo at 0.98 µmol/kg / inhibition in vivo at 98 µmol/kg / inhibition percentage (motor activity) / inhibition in vivo at 3 µmol/kg: mice; for inhibition in vivo at 98 µmol/kg: 98 μmol/kg; for inhibition percentage (motor activity): 3 μmol/kg po; for inhibition in vivo at 3 µmol/kg: 3 μmol/kg
Experimental: 2—In Vivo Determination of Predictive Sedative-Hypnotic Action
The in vivo effects of these compounds were assessed by a predictive sedation-hypnosis test in mice (D. J. Sanger et al., Eur. J. Pharmacol., 313, 35-42, 1996; and G. Griebel et al., Psychopharmacology, 146, 205-213, 1999).
Groups of 5-8 male CD1 mice, weighing 22-26 g at the time of testing, were used. The test compounds were administered in single equimolecular intraperitoneal doses, suspended in 0.25% agar with one drop of Tween 80 in a volume of 10 ml/kg. Two doses were tested in each route. Control animals received the vehicle alone. Using a Smart System (Panlab, S. L., Spain) the traveled distance in cm was recorded for each mouse at 5-min intervals during a period of 30 minutes after intraperitoneal (ip) dosing and 60 minutes after oral (po) dosing. The inhibition percentage of traveled distance of treated animals versus control animals (the first 5 min were discarded) was calculated.

[2] = biological target: α2 subunit of GABAA receptor (Rattus norvegicus, UniProt P18508+P23576); test: biochemical; settings: for inhibition at 10 µM: read-out: % Inhib 10^−5 M; for inhibition at 0.1 µM: read-out: % Inhib 10^−7 M
Experimental: Determination of the Affinity of Test Compounds for α1- and α2-GABAA Receptor
Male Sprague-Dawley rats weighing 200-250 g at the time of experiment were used. After decapitation, the cerebellum (tissue that mostly contains α1-GABAA receptor) and spinal cord (tissue that mostly contains α2-GABAA receptor) were removed. […] Once the tissues weighed, they were suspended in 50 mM Tris.HCl (pH 7.4), 1:40 (v/v), or sucrose 0.32 M in the case of spinal cord, homogenized and then centrifuged at 20000 g for 10 min at 7° C. The resulting pellet was resuspended under the same conditions and centrifuged again. The pellet was finally resuspended on a minimum volume and kept at −80° C. overnight. On the next day, the process was repeated until the final pellet was resuspended at a ratio of 1:10 (v/v) in the case of cerebellum and at a ratio of 1:5 (v/v) in the case of spinal cord.
Affinity was determined by competitive tests using radiolabeled flumazenil as ligand. […] Simultaneously, the membranes were only incubated with the radiolabeled flumazenil (total binding, 100%) and in the presence of an elevated concentration of unradiolabeled flumazenil (non-specific binding, % estimation of radiolabeled ligand). The reactions started on adding the radiolabeled ligand followed by incubation for 60 minutes at 4° C. At the end of the incubation period, 200 μl of reaction were transferred to a multiscreen plate (Millipore) and filtered using a vacuum manifold and then washed three times with cold test buffer. The multiscreen plates were equipped with a GF/B filter that retained the membranes containing the receptors and the radiolabeled ligand which had been bound to the receptors. After washing, the plates were left till dry. Once dried, scintillation liquid was added and left under stirring overnight. The next day the plates were counted using a Perkin-Elmer Microbeta scintillation counter.
where, X: amount of bound ligand for every concentration of compound. T: total binding, maximum amount bound to the radiolabeled ligand. N: non-specific binding, amount of radiolabeled ligand bound in a non-specific way irrespective of the receptor used.
Every concentrations of each compound were tested in triplicate and their mean values were used to determine the experimental values of % specific binding versus the concentration of compound.

[3] = Pharmacokinetic profile after single intravenous dose in rats; format: in vivo; settings: rat; for Vd / clearance / half-life: male, Sprague-Dawley, plasma; for Vd / clearance / half-life / AUC0-t: mean
Experimental: In Vivo Determination of Pharmacokinetic Profile after Single Dose
Indiplon was used as reference compound. Three male Sprague-Dawley rats, weighing 250-300 g were used for each compound. The sampling was performed by retroorbital sinus puncture at the following time points 2.5, 5, 30, 60, 120, 180, 300 and 420 min post-administration. The samples were kept in an ice-bath until plasma separation. The animals were anaesthetized by isoflurane inhaled at each extraction. Plasma was separated by centrifugation (10 min, 4° C., 4500 rpm) and stored at temperature below −70° C. until analysis.
An analytical method based on an extraction of each compound by liquid-solid extraction and subsequent determination by LC/MS or LC/MS/MS using an internal standard (IS) was used.
Calculation of pharmacokinetic parameters (AUC0-t=area under the curve from zero to last extraction time-point, Cl=clearance, t1/2=half-life and Vd=volume of distribution) according to non-compartmental analysis was performed.

HepG2 cells = test: In vitro cell toxicity in HepG2 at 24 h (MTS); format: cell-based, human; settings: for cytotoxicity compared with prior art compounds: HepG2, 24 h; for cell toxicity in HepG2, percentage of control (relative cell viability): 100 μM, 24 h, MTS
Experimental: In Vitro Determination of Cell Toxicity in HepG2 at 24 h
HepG2 cells (human hepatocellular carcinoma) were obtained from the American Type Culture Collection (ATCC) and cultured in Eagle's Minimum Essential Medium (Eagle) with Earle's balanced salt solution adjusted to contain 1.87 mM Glutamax™ I, 0.1 mM non-essential amino acids, 1.0 mM sodium pyruvate, 100000 U/L penicillin, 10000 μg/L streptomycin 90%; fetal bovine serum, 10%. Promega CellTiter 96® Aqueous Non-Radioactive Cell Viability Assay contains the tetrazolium compound [3-(4,5-dimethylthiazol-2-yl)-5-(3-carboxymethoxyphenyl)-2-(4-sulfophenyl)-2H-tetrazolium, inner salt (MTS). The conversion of MTS into the aqueous soluble formazan product is accomplished by dehydrogenase enzymes found in metabolically active cells. The quantity of formazan product is directly proportional to the number of living cells in culture.
Compounds were dissolved in DMSO to achieve an initial concentration of 100 mM. Serial dilutions were made from this stock solution into DMSO to achieve concentrations of 10, 1, 0.1 and 0.01 mM. The stock solution and serial dilutions were then diluted 1:100 with cell culture medium to obtain […] final assay concentrations of […]. The final DMSO concentration in all wells was 1% v/v. HepG2 cells were incubated with test compounds for 24 hours. Relative cell viability was determined spectrophotometrically at 490 nm following the addition of the MTS dye and further one-hour incubation. Tamoxifen was used as the positive control.
The percent absorbance of the samples treated with the test article was compared to the untreated sample to calculate the percentage of control.

[4] = Metabolic stability in human hepatocytes cytosolic fraction; format: in vitro ADME; settings: 5 μM, 1.0 mg/ml human cytosol, 37° C.
Experimental: In Vitro Determination of Metabolic Stability in Human Hepatocytes Cytosolic Fraction
Compounds were dissolved in DMSO to achieve an initial concentration of 10 mM. This stock solution was then diluted with solvent and buffer to obtain final assay concentration of 5 μM. Compounds were tested at a single concentration of 5 μM in duplicate incubating with 1.0 mg/ml of pooled human cytosol (obtained from Xenotech plc) at 37° C. Metabolism was assessed in the presence or absence of cofactors and measured as loss of parent compound by LC/MS analysis at 0, 60 and 120-minutes time points. Percent parent remaining was then calculated. A generic LC method was used: • Mobile phase: • A=0.1% Formic acid in water • B=0.1% Formic acid in acetonitrile • HPLC Column: Higgins Clipius C18 5 μm, 50×3 mm • Flow rate: 2 ml·min^−1

Sequence of α2 subunit of GABAA receptor (P23576 29-451): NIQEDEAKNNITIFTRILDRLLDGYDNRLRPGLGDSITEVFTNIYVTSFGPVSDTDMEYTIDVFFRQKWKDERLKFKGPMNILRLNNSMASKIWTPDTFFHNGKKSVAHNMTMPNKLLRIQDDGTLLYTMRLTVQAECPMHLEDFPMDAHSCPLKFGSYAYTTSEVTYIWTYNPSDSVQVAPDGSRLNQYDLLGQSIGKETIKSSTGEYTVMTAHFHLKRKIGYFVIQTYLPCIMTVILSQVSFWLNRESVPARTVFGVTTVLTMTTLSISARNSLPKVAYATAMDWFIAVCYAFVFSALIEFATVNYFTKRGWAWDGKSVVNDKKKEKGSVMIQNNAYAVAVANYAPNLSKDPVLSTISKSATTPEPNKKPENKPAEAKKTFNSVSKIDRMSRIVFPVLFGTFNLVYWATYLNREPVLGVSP
Sequence of α2 subunit of GABAA receptor (P18508 39-466): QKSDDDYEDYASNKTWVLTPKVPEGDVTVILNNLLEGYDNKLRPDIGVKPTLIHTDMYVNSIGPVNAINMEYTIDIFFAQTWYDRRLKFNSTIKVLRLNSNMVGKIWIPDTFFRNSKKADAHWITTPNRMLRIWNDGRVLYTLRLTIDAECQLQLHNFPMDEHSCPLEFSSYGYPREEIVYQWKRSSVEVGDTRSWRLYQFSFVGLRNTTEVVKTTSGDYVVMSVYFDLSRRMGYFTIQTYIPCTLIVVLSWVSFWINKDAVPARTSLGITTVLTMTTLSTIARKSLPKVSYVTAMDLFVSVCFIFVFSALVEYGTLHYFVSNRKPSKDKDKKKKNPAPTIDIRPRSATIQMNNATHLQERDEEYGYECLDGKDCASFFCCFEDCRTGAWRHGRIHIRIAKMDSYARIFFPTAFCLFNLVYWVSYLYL
Sequence of α2 subunit of GABAA receptor (P63079 26-473 partner): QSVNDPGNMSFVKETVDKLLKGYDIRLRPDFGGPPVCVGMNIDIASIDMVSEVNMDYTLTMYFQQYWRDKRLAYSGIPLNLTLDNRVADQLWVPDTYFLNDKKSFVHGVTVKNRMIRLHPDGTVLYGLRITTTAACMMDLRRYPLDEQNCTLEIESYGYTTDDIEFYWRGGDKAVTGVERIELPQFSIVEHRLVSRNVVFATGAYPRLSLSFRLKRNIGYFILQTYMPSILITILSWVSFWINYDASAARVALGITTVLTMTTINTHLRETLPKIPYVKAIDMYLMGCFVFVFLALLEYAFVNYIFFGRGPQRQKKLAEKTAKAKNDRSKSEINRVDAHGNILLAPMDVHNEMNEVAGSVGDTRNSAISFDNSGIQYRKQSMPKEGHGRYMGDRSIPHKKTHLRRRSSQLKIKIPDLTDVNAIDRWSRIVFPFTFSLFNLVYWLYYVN
Sequence of α1 subunit of GABAA receptor (P62813 28-455): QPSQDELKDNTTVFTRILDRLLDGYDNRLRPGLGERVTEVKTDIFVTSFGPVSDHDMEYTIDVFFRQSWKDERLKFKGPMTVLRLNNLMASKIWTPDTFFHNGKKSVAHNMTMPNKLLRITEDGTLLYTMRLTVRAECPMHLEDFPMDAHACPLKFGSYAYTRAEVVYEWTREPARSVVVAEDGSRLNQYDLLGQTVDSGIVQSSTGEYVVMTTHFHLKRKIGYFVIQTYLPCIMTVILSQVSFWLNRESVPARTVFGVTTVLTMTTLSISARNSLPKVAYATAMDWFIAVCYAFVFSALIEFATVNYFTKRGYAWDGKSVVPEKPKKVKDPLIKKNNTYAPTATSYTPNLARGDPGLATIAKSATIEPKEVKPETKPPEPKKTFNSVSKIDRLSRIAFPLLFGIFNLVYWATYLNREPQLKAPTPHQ
Sequence of α1 subunit of GABAA receptor (P18508 39-466): as the sequence (P18508 39-466) above
Sequence of α1 subunit of GABAA receptor (P63138 26-474 partner): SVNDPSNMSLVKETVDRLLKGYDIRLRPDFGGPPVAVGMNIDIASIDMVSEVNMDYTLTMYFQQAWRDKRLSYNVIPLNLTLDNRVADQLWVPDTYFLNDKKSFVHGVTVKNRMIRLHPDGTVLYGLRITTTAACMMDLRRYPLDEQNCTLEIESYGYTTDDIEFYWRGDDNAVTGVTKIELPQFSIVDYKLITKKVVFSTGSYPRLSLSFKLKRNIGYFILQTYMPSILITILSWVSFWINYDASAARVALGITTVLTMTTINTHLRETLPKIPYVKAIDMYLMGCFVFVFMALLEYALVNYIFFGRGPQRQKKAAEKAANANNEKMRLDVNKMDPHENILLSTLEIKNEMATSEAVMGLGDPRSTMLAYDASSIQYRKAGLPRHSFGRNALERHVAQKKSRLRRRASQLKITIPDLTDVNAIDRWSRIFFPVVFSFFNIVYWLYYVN

| SMILES | inhibition at 10 µM [1] | inhibition at 0.1 µM [1] | inhibition in vivo at 0.98 µmol/kg (motor activity of mice; ip) | inhibition in vivo at 98 µmol/kg (motor activity of mice; ip) | inhibition at 10 µM [2] | inhibition at 0.1 µM [2] | inhibition in vivo at 3 µmol/kg (motor activity of mice; po) | inhibition in vivo at 98 µmol/kg (motor activity of mice; po) | cytotoxicity compared with prior art compounds (HepG2 cells) | Percent parent remaining ([4]; 60 min) | Percent parent remaining ([4]; 120 min) | cell toxicity in HepG2, percentage of control (relative cell viability) (HepG2 cells) | further results |
| --- | --- | --- | --- | --- | --- | --- | --- | --- | --- | --- | --- | --- | --- |
| CN(c1cccc(-c2ccnc3c(C(=O)c4cccs4)cnn23)c1)S(C)(=O)=O [Example 3 WO2005014597, N-{3-[3-(thiophene-2-carbonyl)-pyrazolo[1,5-a]pyrimidin-7-yl]-phenyl}-N-methyl-methanesulfonamide, reference compound] | 100% | 90.6% | 64.6% | 89.8% | 99.8% | 58.5% | – | – | – | – | – | – | – |
| CC(=O)N(C)c1cc(-c2ccnc3c(C(=O)c4cccs4)cnn23)ccc1F [Preparative example 2, N-{2-Fluoro-5-[3-(thiophene-2-carbonyl)-pyrazolo[1,5-a]pyrimidin-7-yl]-phenyl}-N-methyl-acetamide] | 100% | 95.3% | 81.2% | 95% | 99.3% | 67.3% | 84% | 92.3% | less cytotoxicity than prior art compounds | 104% | 110% | – | Vd [3]: 7.24 L/kg; clearance [3]: 45.7 mL/min/kg; half-life [3]: 104 min; AUC0-t [3]: 1100 ng·h/mL; area under the curve higher than Indiplon ([3]; versus Indiplon): 57%; clearance lower than Indiplon ([3]; versus Indiplon): 20%; half-life higher than Indiplon ([3]; versus Indiplon): 76%; volume of distribution higher than Indiplon ([3]; versus Indiplon): 212%; inhibition percentage (motor activity) (motor activity of mice; 5 minutes): 84%; inhibition percentage (motor activity) (motor activity of mice; 60 minutes): 84% |
| C#CCN(c1cc(-c2ccnc3c(C(=O)c4cccs4)cnn23)ccc1F)S(C)(=O)=O [Preparative example 10, N-{2-Fluoro-5-[3-(thiophene-2-carbonyl)-pyrazolo[1,5-a]pyrimidin-7-yl]-phenyl}-N-prop-2-ynyl-methanesulfonamide] | 100% | 99.7% | 91.9% | 91.6% | 100% | 97.5% | 47.9% | 90.2% | – | – | – | – | melting point: 149 to 153 °C; increase in sedative-hypnotic activity (motor activity of mice; versus Example 16 of WO2005014597, low dose, independently of the administration route): higher than 20% |
| CCN(C(C)=O)c1cccc(-c2ccnc3c(C#N)cnn23)c1 [Zaleplon, reference compound] | – | – | 32.7% | 85% | – | – | 25.4% | 64.1% | – | – | – | – | – |
| CC(=O)N(C)c1cccc(-c2ccnc3c(C(=O)c4cccs4)cnn23)c1 [Indiplon, N-{3-[3-(thiophene-2-carbonyl)-pyrazolo[1,5-a]pyrimidin-7-yl]-phenyl}-N-methyl-acetamide, reference compound] | – | – | 70.5% | 88% | – | – | 73.7% | 82.4% | – | 100% | 98% | – | Vd [3]: 2.32 L/kg; clearance [3]: 57.5 mL/min/kg; half-life [3]: 59 min; AUC0-t [3]: 700 ng·h/mL; inhibition percentage (motor activity) (motor activity of mice; 5 minutes): 74%; inhibition percentage (motor activity) (motor activity of mice; 60 minutes): 67% |
| CN(c1cc(-c2ccnc3c(C(=O)c4cccs4)cnn23)ccc1F)S(C)(=O)=O [Preparative example 6, N-{2-Fluoro-5-[3-(thiophene-2-carbonyl)-pyrazolo[1,5-a]pyrimidin-7-yl]-phenyl}-N-methyl-methanesulfonamide] | 99.7% | 88.8% | 69.4% | 91.5% | 97.9% | 55.9% | 46.2% | 82% | less cytotoxicity than prior art compounds | 103% | 106% | 84.31% | – |
| CN(c1cc(-c2ccnc3c(C(=O)c4cccs4)cnn23)ccc1Cl)S(C)(=O)=O [Preparative example 8, N-{2-Chloro-5-[3-(thiophene-2-carbonyl)-pyrazolo[1,5-a]pyrimidin-7-yl]-phenyl}-N-methyl-methanesulfonamide] | 93.8% | 40.9% | – | 78.3% | 68.9% | 0% | – | – | less cytotoxicity than prior art compounds | – | – | 75.39% | melting point: 241 to 243 °C |
| CC(=O)N(C)c1cc(-c2ccnc3c(C(=O)c4cccs4)cnn23)ccc1Cl [Preparative example 4, N-{2-Chloro-5-[3-(thiophene-2-carbonyl)-pyrazolo[1,5-a]pyrimidin-7-yl]-phenyl}-N-methyl-acetamide] | 99.8% | 60% | – | 90.3% | 95.7% | 8.4% | – | 88.7% | less cytotoxicity than prior art compounds | 105% | 103% | 92.86% | – |
| C#CCN(c1cccc(-c2ccnc3c(C(=O)c4cccs4)cnn23)c1)S(C)(=O)=O [Example 16 WO2005014597, N-{3-[3-(thiophene-2-carbonyl)-pyrazolo[1,5-a]pyrimidin-7-yl]-phenyl}-N-prop-2-ynyl-methanesulfonamide, reference compound] | 100% | 99.9% | 71.4% | 95.4% | – | – | 38.8% | 84.3% | – | – | – | – | – |
